Results reported in PubChem BioAssay AID226 (DTP/NCI, 2004).
“And” between values parts separate entries of the source, which are not always exact repeats. Identical values can stand only once. Inconclusive results and toxic doses are left out.

System: B6C3F1 mice, intracerebral ependymoblastoma, median survival T/C
Assay: NCI In Vivo Anticancer Drug Screen. Data for tumor model Ependymoblastoma (intracerebral) in B6C3F1 mice
Conditions: endpoint: median survival time, higher = longer survival
Description: The antitumor activity of compounds was measured in mice bearing transplantable tumors. Survival or tumor size were measured and the results are expressed as the measurement made in the treated group (T) divided by the measurement made in the vehicle treated control group (C). The tumor model used in this assay is Ependymoblastoma (intracerebral) in B6C3F1 mice

[1] = dose: 8.0 mg/kg/injection, schedule: Q01DX005 (ip), vehicle: saline with Tween-80
[2] = dose: 16.0 mg/kg/injection, schedule: Q01DX005 (ip), vehicle: saline with Tween-80
[3] = dose: 32.0 mg/kg/injection, schedule: Q01DX005 (ip), vehicle: saline with Tween-80
[4] = dose: 64.0 mg/kg/injection, schedule: Q01DX005 (ip), vehicle: saline with Tween-80

CN(C)CCCNc1c2ccccc2nc2cccc([N+](=O)[O-])c12
T/C (dose: 0.06 mg/kg/injection, schedule: Q01DX001 (oral), vehicle: saline): 102 % of control | T/C (dose: 0.06 mg/kg/injection, schedule: Q01DX005 (ip), vehicle: saline): 103 % of control and 105 % of control and 112 % of control | T/C (dose: 0.12 mg/kg/injection, schedule: Q01DX001 (oral), vehicle: saline): 98 % of control | T/C (dose: 0.12 mg/kg/injection, schedule: Q01DX005 (ip), vehicle: saline): 92 % of control | T/C (dose: 0.13 mg/kg/injection, schedule: Q01DX005 (ip), vehicle: saline): 102 % of control | T/C (dose: 0.25 mg/kg/injection, schedule: Q01DX001 (oral), vehicle: saline): 103 % of control | T/C (dose: 0.5 mg/kg/injection, schedule: Q01DX001 (oral), vehicle: saline): 100 % of control | T/C (dose: 1.0 mg/kg/injection, schedule: Q01DX001 (oral), vehicle: saline): 108 % of control | T/C (dose: 2.0 mg/kg/injection, schedule: Q01DX001 (oral), vehicle: saline): 108 % of control | T/C (dose: 4.0 mg/kg/injection, schedule: Q01DX001 (oral), vehicle: saline): 103 % of control | T/C (dose: 16.0 micrograms/kg/injection, schedule: Q01DX005 (ip), vehicle: saline): 100 % of control and 110 % of control | T/C (dose: 32.0 micrograms/kg/injection, schedule: Q01DX005 (ip), vehicle: saline): 100 % of control and 102 % of control | T/C (dose: 63.0 micrograms/kg/injection, schedule: Q01DX005 (ip), vehicle: saline): 97 % of control and 104 % of control | T/C (dose: 125.0 micrograms/kg/injection, schedule: Q01DX005 (ip), vehicle: saline): 100 % of control and 106 % of control

S=P(N1CC1)(N1CC1)N1CC1.[Cl-].[Cl-].[NH2-].[NH2-].[Pt+4]
T/C (dose: 3.0 mg/kg/injection, schedule: Q01DX005 (ip), vehicle: dextrose): 122 % of control | T/C (dose: 6.0 mg/kg/injection, schedule: Q01DX005 (ip), vehicle: dextrose): 155 % of control

COc1cc([C@@H]2c3cc4c(cc3[C@@H](OC3OC5CO[C@@H](c6cccs6)OC5C(O)C3O)[C@H]3COC(=O)[C@H]23)OCO4)cc(OC)c1O (stereo not given in full)
T/C (dose: 0.25 mg/kg/injection, schedule: Q01DX005 (ip), vehicle: saline): 103 % of control | T/C (dose: 0.5 mg/kg/injection, schedule: Q01DX005 (ip), vehicle: saline): 90 % of control | T/C (dose: 1.0 mg/kg/injection, schedule: Q12HX006 (ip), vehicle: saline): 92 % of control | T/C (dose: 2.0 mg/kg/injection, schedule: Q01DX005 (ip), vehicle: saline): 118 % of control | T/C (dose: 2.0 mg/kg/injection, schedule: Q01DX005 (oral), vehicle: saline): 122 % of control | T/C (dose: 2.0 mg/kg/injection, schedule: Q12HX002 (ip), vehicle: saline): 93 % of control | T/C (dose: 2.0 mg/kg/injection, schedule: Q12HX006 (ip), vehicle: saline): 119 % of control | T/C (dose: 4.0 mg/kg/injection, schedule: Q01DX001 (ip), vehicle: saline): 100 % of control and 105 % of control | T/C (dose: 4.0 mg/kg/injection, schedule: Q01DX005 (oral), vehicle: saline): 124 % of control | T/C (dose: 4.0 mg/kg/injection, schedule: Q12HX002 (ip), vehicle: saline): 93 % of control | T/C (dose: 4.0 mg/kg/injection, schedule: Q12HX006 (ip), vehicle: saline): 119 % of control | T/C (dose: 8.0 mg/kg/injection, schedule: Q01DX001 (ip), vehicle: saline): 110 % of control and 111 % of control and 118 % of control | T/C (dose: 8.0 mg/kg/injection, schedule: Q01DX005 (oral), vehicle: saline): 113 % of control | T/C (dose: 8.0 mg/kg/injection, schedule: Q12HX002 (ip), vehicle: saline): 90 % of control | T/C (dose: 8.0 mg/kg/injection, schedule: Q12HX006 (ip), vehicle: saline): 122 % of control | T/C (dose: 16.0 mg/kg/injection, schedule: Q01DX001 (ip), vehicle: saline): 112 % of control and 115 % of control and 118 % of control | T/C (dose: 16.0 mg/kg/injection, schedule: Q01DX001 (oral), vehicle: saline): 94 % of control and 101 % of control | T/C (dose: 16.0 mg/kg/injection, schedule: Q12HX002 (ip), vehicle: saline): 93 % of control | T/C (dose: 32.0 mg/kg/injection, schedule: Q01DX001 (ip), vehicle: saline): 104 % of control and 109 % of control and 117 % of control | T/C (dose: 32.0 mg/kg/injection, schedule: Q01DX001 (oral), vehicle: saline): 109 % of control and 110 % of control (2×) | T/C (dose: 64.0 mg/kg/injection, schedule: Q01DX001 (oral), vehicle: saline): 104 % of control and 109 % of control and 115 % of control | T/C (dose: 128.0 mg/kg/injection, schedule: Q01DX001 (oral), vehicle: saline): 97 % of control and 109 % of control

CC1=C(/C=C/C(C)=C/C=C/C(C)=C/C(=O)O)C(C)(C)CCC1
T/C [1]: 99 % of control | T/C [2]: 119 % of control | T/C [3]: 115 % of control | T/C [4]: 118 % of control | T/C (dose: 128.0 mg/kg/injection, schedule: Q01DX005 (ip), vehicle: saline with Tween-80): 109 % of control

CC(=O)OC1COC(NC(=O)N(CCCl)N=O)C(OC(C)=O)C1OC(C)=O (stereo not given)
T/C (dose: 0.18 mg/kg/injection, schedule: Q01DX009 (ip), vehicle: saline with Tween-80): 103 % of control | T/C (dose: 0.38 mg/kg/injection, schedule: Q01DX009 (ip), vehicle: saline with Tween-80): 117 % of control | T/C (dose: 0.75 mg/kg/injection, schedule: Q01DX005 (ip), vehicle: saline with Tween-80): 113 % of control | T/C (dose: 1.5 mg/kg/injection, schedule: Q01DX005 (ip), vehicle: saline with Tween-80): 96 % of control and 121 % of control | T/C (dose: 3.0 mg/kg/injection, schedule: Q01DX005 (ip), vehicle: saline with Tween-80): 91 % of control | T/C (dose: 3.0 mg/kg/injection, schedule: Q01DX009 (ip), vehicle: saline with Tween-80): 178 % of control | T/C (dose: 6.0 mg/kg/injection, schedule: Q01DX005 (ip), vehicle: saline with Tween-80): 107 % of control | T/C (dose: 6.0 mg/kg/injection, schedule: Q01DX009 (ip), vehicle: saline with Tween-80): 165 % of control | T/C (dose: 12.0 mg/kg/injection, schedule: Q01DX005 (ip), vehicle: saline with Tween-80): 158 % of control

CCCCCCCCN(C)/N=N/c1nc[nH]c1C(N)=O
T/C [1]: 119 % of control | T/C [2]: 122 % of control and 123 % of control | T/C [3]: 113 % of control | T/C [4]: 111 % of control

C1CN(P2(N3CC3)=NP(N3CC3)(N3CC3)=NP(N3CC3)(N3CC3)=N2)CCO1 (stereo not given)
T/C (dose: 20.0 mg/kg/injection, schedule: Q01DX001 (ip), vehicle: saline): 101 % of control | T/C (dose: 40.0 mg/kg/injection, schedule: Q01DX001 (ip), vehicle: saline): 102 % of control | T/C (dose: 80.0 mg/kg/injection, schedule: Q01DX001 (ip), vehicle: saline): 96 % of control

CCCCCCCC(=O)O[C@H]1[C@H]2[C@@H](CC1(C)C)C(=O)[C@]13O[C@H]1C(=O)[C@]1(CO1)[C@]23C
T/C (dose: 0.62 mg/kg/injection, schedule: Q01DX005 (ip), vehicle: Klucel (hydroxypropylcellulose) (HPC)): 107 % of control | T/C (dose: 1.25 mg/kg/injection, schedule: Q01DX005 (ip), vehicle: Klucel (hydroxypropylcellulose) (HPC)): 106 % of control | T/C (dose: 2.5 mg/kg/injection, schedule: Q01DX005 (ip), vehicle: Klucel (hydroxypropylcellulose) (HPC)): 111 % of control | T/C (dose: 5.0 mg/kg/injection, schedule: Q01DX005 (ip), vehicle: Klucel (hydroxypropylcellulose) (HPC)): 110 % of control | T/C (dose: 10.0 mg/kg/injection, schedule: Q01DX005 (ip), vehicle: Klucel (hydroxypropylcellulose) (HPC)): 102 % of control | T/C (dose: 20.0 mg/kg/injection, schedule: Q01DX005 (ip), vehicle: Klucel (hydroxypropylcellulose) (HPC)): 101 % of control
